Where a name gives a salt, the structure may show the parent alone. Read-outs that look alike come from different tables or passages of the source.
Columns and labels:
SARS-CoV-2 [1] = details: human lung cells; cited from earlier work
SARS-CoV-2 [2] = details: human prostate cells; cited from earlier work
CYP1A2 = target: T1, CYP1A2 (Homo sapiens, UniProt P05177); assay: Fluorometric CYP1A2 activity assay in human liver microsomes; assay type: in vitro ADME; details: reference inhibitor at 6 µM, human hepatic microsomes
T1 sequence (P05177 1-516): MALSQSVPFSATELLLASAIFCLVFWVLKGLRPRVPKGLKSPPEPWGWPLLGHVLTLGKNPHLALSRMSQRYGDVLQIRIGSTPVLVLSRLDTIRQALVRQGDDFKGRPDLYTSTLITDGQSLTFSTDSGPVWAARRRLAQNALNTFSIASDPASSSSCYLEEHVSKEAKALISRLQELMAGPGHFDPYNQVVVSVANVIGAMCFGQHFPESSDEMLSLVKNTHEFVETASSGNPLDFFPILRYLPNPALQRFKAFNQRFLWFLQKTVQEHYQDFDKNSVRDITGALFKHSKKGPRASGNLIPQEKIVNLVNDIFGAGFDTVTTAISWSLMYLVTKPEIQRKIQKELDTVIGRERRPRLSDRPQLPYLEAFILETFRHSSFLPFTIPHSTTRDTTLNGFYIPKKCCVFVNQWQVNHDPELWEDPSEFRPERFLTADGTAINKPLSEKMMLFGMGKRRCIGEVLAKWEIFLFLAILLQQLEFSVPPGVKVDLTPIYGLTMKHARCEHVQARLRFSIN

SARS-CoV-2 [3] = details: cited from earlier work
CYP2C9 = CYP2C9 (Homo sapiens, UniProt P11712); assay: Fluorometric CYP2C9 activity assay in human liver microsomes; assay type: in vitro ADME; details: reference inhibitor at 60 µM, human hepatic microsomes
CYP2C9, sequence (P11712 whole entry): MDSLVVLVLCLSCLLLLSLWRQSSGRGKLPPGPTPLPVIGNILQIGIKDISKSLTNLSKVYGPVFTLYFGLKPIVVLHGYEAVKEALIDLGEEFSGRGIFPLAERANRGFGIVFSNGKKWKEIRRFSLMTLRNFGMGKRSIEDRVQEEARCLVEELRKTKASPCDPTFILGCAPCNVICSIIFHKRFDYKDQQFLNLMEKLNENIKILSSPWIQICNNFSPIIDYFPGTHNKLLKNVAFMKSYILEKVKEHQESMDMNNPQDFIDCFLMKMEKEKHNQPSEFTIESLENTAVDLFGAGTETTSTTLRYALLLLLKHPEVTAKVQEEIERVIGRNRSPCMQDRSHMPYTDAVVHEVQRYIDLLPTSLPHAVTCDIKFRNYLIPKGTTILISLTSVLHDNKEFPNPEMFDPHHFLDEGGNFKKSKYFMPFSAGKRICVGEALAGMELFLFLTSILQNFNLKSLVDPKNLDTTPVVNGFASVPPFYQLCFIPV

For `CNC(=O)c1ccc(N2C(=S)N(c3ccc(C#N)c(C(F)(F)F)c3)C(=O)C2(C)C)cc1F` [enzalutamide], the “SARS-CoV-2 infection” value (SARS-CoV-2 [1]) is given as “not in human lung cells” and the “SARS-CoV-2 infection” value (SARS-CoV-2 [2]) is given as “suppressed mainly in human prostate cells”.

With `O=c1cc(-c2ccccc2)oc2c1ccc1ccccc12` [α-naphthoflavone] the “effect on CYP1A2 activity” value (CYP1A2) was “suppressed significantly”.

In the case of `N=C(N)c1ccc2cc(OC(=O)c3ccc(N=C(N)N)cc3)ccc2c1` [nafamostat mesylate], the “S protein-mediated fusion and SARS-CoV-2 entry into Calu-3 cells” value (SARS-CoV-2 [3]) is given as “could block successfully”.

For `O=C(O)COc1ccc(C(=O)c2cccs2)c(Cl)c1Cl` [tienilic acid], the “effect on CYP2C9 activity” value (CYP2C9) was “inhibited”.
